Entries after “also recorded” stand apart in the source; their conditions may differ. Read-outs that look alike come from different tables or passages of the source.
Columns and labels:
[1] = system: seizures induced by electroshock and pentylenetetrazole; assay: Anticonvulsant testing, overall (MES and Met); format: in vivo, male Carworth Farms number-1 mice; details: for CLASS: Phase I Identification: mice, i.p., classes not defined in the patent
Protocol: (§1) Compounds were screened for anticonvulsant activity in male Carworth Farms number-1 mice. Test solutions of all compounds were prepared in 30% polyethylene glycol 400, and animals were dosed intraperitoneally at either 30 minutes or 4 hours prior to testing. Testing was conducted on four mice at each of three dose levels (30, 100, and 300 mg/kg).
(§2) Maximal electroshock seizures (MES) were elicited with a 60 cycle alternatiing current of 50-mA intensity (five to seven times that necessary to evoke minimal electroshock threshold seizures). Current was delivered via corneal electrodes for 0.2 s. A drop of 0.9% saline was instilled in the eye prior to application of electrodes. Abolition of the hindlimb tonic extension component of the seizure was defined as protection in the MES test.
(§3) In the subcutaneous pentylenetetrazole (Metrazol) seizure threshold test(met), 85 mg/kg pentylenetetrazole was administered as a 0.5% solution in the posterior midline. Protection in this test was defined as a failure to observe a single episode of clonic spasms of at least 5 s duration during the 30 minute period following administration of the convulsive agent.
(§4) Biological testing--Compounds were screened for anticonvulsant activity in male Carworth Farms number-one mice. Test solutions of all compounds were prepared in 30% polyethylene glycol 400, and animals were dosed intraperitoneally at either 30 min or 4 h prior to testing. Testing was conducted on four mice at each of three dose levels (30, 100, and 300 mg/kg).
(§5) Maximal electroshock seizures (MES) were elicited with a 60 cycle alternating current of 50-mA intensity (five to seven times that necessary to evoke minimal electroshock threshold seizures). Current was delivered via corneal electrodes for 0.2 s. A drop of 0.9% saline was instilled in the eye prior to application of electrodes. Abolition of the hindlimb tonic extension component of the seizure was defined as protection in the MES test.
(§6) In the subcutaneous pentylenetetrazole (Metrazol) seizure threshold test (Met), 85 mg/kg pentylenetetrazole was administered as a 0.5% solution in the posterior midline. Protection in this test was defined as a failure to observe a single episode of clonic spasms of at least 5 s duration during the 30 min period following administration of the convulsive agent.

[2] = target: T1, strychnine-insensitive glycine binding site of the NMDA receptor (Rattus norvegicus, UniProt P35439); assay: Inhibition of [3H]glycine specific binding (strychnine-insensitive) in rat cerebral cortex membranes; details: 10 uM compound
T1 construct: Membranes were prepared from rat cerebral cortex; from tissue; host or cells: rat cerebral cortex, "buffy coat" membranes
Protocol: Binding Studies--Inhibition of [^3 H]glycine specific binding was assayed using [^3 H]glycine (43 Ci/mmol) obtained from DuPont-New England Nuclear. […] Membranes were prepared from rat cerebral cortex and assays were conducted in Na-free 50 mM HEPES (Sigma) at pH 7.4. Membranes were incubated in a final volume of 1 ml with 20 nM [^3 H]glycine and a 10 uM concentration of the test compound. Although experience has shown that [^3 H]glycine binding in this preparation is strychnine insensitive, 10 uM strychnine was added to the assay mixtures to eliminate the possibility that any effects studied could be mediated through a strychnine-sensitive process. Incubation was continued for 20 min at 4° C. Non-specific binding was determined in the presence of 1 mM glycine and subtracted. All conditions were tested in triplicate in 3 different assays. Binding was terminated using a Brandel M-24C cell harvester employing rapid filtration through GF/C glass fiber filters pre-soaked in 1% (V/V) polyethylenimine. Filters were washed twice with 5 ml buffer cooled to 4° C. Radioactivity bound to the filters was determined with a Beckman LS-500OTD liquid scintillation counter.

[3] = system: pentylenetetrazole (Metrazol) induced seizures; assay: Subcutaneous pentylenetetrazole (Metrazol) seizure threshold test (Met) in mice; format: in vivo, male Carworth Farms number-1 mice; details: for (Maximum Ineffective) Intraperitoneal Dose, Met: Table 7, value in parentheses = maximum ineffective dose; for minimal effective dose: Mus musculus, ip; for Sc MET: mice i.p.
Protocol: as §1, §3, §4, §6

[4] = system: neurological deficit (rotorod); assay: Rotorod test for neurological deficit (TOX) in mice; format: in vivo, male Carworth Farms number-1 mice
Protocol: as §1
Animals were also tested for neurological deficit using the rotorod. After treatment, the animal was placed on a 1 inch diameter knurled plastic rod rotating at 6 rpm. Neurologic deficit was defined as the failure of the animal to remain on the rod for 1 minute.
as §4
Animals were also tested for neurological deficit using the rotorod. After treatment, the animal was placed on a 1 inch diameter knurled plastic rod rotating at 6 rpm. Neurologic deficit was defined as the failure of the animal to remain on the rod for 1 min.

[5] = system: maximal electroshock seizures (MES); assay: animal or person; format: in vivo, male Carworth Farms number-1 mice; details: for MES: mice i.p.; for minimal effective dose: Mus musculus, ip
Protocol: as §1, §2, §4, §5

[6] = Table 7, value without parentheses = effective dose (neurologic deficit)
[7] = Table 7, value without parentheses = effective dose, read-out: Effective Intraperitoneal Dose, Met
[8] = mice, intraperitoneal, read-out: dose active in Met test

CCOC(=O)c1cc2cc(Cl)ccc2[nH]1 [5-Cl-2-ethyl ester]
anticonvulsant activity (words) ([1]; mice, intraperitoneal): inactive; also recorded: abolished activity | [3H]glycine binding inhibition [2]: inactive

O=C(O)c1cccc(C(=O)O)n1 [2,6-pyridine dicarboxylic acid, pyridine-2,6-dicarboxylic acid]
anticonvulsant activity (words) ([1]; mice, intraperitoneal): did neither | (Maximum Ineffective) Intraperitoneal Dose, Met [3]: 300 mg/kg | Effective Intraperitoneal Dose, Rotorod [4, 6]: 300 mg/kg | crossing of the blood-brain barrier ([4]; evidenced by the rotorod test): did cross the blood-brain barrier | dose causing neurological deficit on rotorod ([4]; mice, intraperitoneal): 300 mg/kg | [3H]glycine binding inhibition [2]: no glycine displacement; also recorded: did neither

CCOC(=O)c1cccc(C(=O)OCC)n1 [2,6-pyridine-di-(ethyl carboxylate), 2,6-pyridine-di(ethyl carboxylate)]
minimal effective dose ([1]; Mus musculus, ip, mice, intraperitoneal, read-out: dose level with anticonvulsant activity (test not given)): 100 mg/kg | anticonvulsant activity (words) ([1]; mice, intraperitoneal): had anticonvulsant activity | minimal effective dose [3, 7]: 100 mg/kg | minimal effective dose [3, 8]: 100 mg/kg | Effective Intraperitoneal Dose, Rotorod ([4]; mouse, in vivo, ip): 300 mg/kg | dose causing neurological deficit on rotorod ([4]; mouse, in vivo, ip): 300 mg/kg | [3H]glycine binding inhibition [2]: potent [^3 H]glycine displacement | [3H]glycine binding inhibition ([2]; listed as diethyl ester of pyridine-2,6-dicarboxylic acid): inhibited glycine binding

COC(=O)c1cc(N)c2c(Cl)cc(Cl)cc2n1 [4-amino-5,7-dichloro-2-quinoline carboxylate methyl ester]
CLASS [1]: 1 | MES ([5]; 30 minutes, 30 mg/kg): 0/1 | MES ([5]; 30 minutes, 100 mg/kg): 0/3 | MES ([5]; 30 minutes, 300 mg/kg): 0/1 | MES ([5]; 4 hours, 30 mg/kg): 0/1 | MES ([5]; 4 hours, 100 mg/kg): 1/3 | MES ([5]; 4 hours, 300 mg/kg): 1/1 | Sc MET ([3]; 30 minutes, 30 mg/kg): 0/1 | Sc MET ([3]; 30 minutes, 100 mg/kg): 1/1 | Sc MET ([3]; 30 minutes, 300 mg/kg): 0/1 | Sc MET ([3]; 4 hours, 30 mg/kg): 0/1 | Sc MET ([3]; 4 hours, 100 mg/kg): 0/1 | Sc MET ([3]; 4 hours, 300 mg/kg): 0/1

CCOC(=O)c1cc2cc(O)ccc2[nH]1 [5-hydroxyl-2-ethyl ester]
anticonvulsant activity (words) ([1]; mice, intraperitoneal): no CNS effects | [3H]glycine binding inhibition [2]: binding activity

CNc1cc(C(=O)OC)nc2cc(Cl)cc(Cl)c12 [4-methylamino-5,7-dichloro quinoline 2-carboxylate methyl ester]
CLASS [1]: 3 | anticonvulsant activity (words) ([1]; mice, intraperitoneal): inactive | anticonvulsant activity (words) ([1]; mice, intraperitoneal, listed as 4-methylamino-5,7-dichloro quinoline 2-carboxylate methyl ester): lack of anticonvulsant activity | anticonvulsant activity (words) ([1]; mice, intraperitoneal, listed as 5,7-di-Cl-4-methylamino-2-methyl ester): inactive in anticonvulsant testing | MES ([5]; 30 minutes, 30 mg/kg): 0/1 | MES ([5]; 30 minutes, 100 mg/kg): 0/3 | MES ([5]; 30 minutes, 300 mg/kg): 0/1 | MES ([5]; 4 hours, 30 mg/kg): 0/1 | MES ([5]; 4 hours, 100 mg/kg): 0/3 | MES ([5]; 4 hours, 300 mg/kg): 0/1 | Sc MET ([3]; 30 minutes, 30 mg/kg): 0/1 | Sc MET ([3]; 30 minutes, 100 mg/kg): 0/1 | Sc MET ([3]; 30 minutes, 300 mg/kg): 0/1 | Sc MET ([3]; 4 hours, 30 mg/kg): 0/1 | Sc MET ([3]; 4 hours, 100 mg/kg): 0/1 | Sc MET ([3]; 4 hours, 300 mg/kg): 0/1

COc1ccc2[nH]c(C(=O)O)cc2c1 [5-methoxy-indole-2-COOH]
anticonvulsant activity (words) ([1]; mice, intraperitoneal): no anticonvulsant activity | (Maximum Ineffective) Intraperitoneal Dose, Met [3]: 300 mg/kg | Effective Intraperitoneal Dose, Rotorod ([4]; mouse, in vivo, ip): 300 mg/kg

CCCCOC(=O)c1cc(NC)c2c(Cl)cc(Cl)cc2n1 [Butyl 4-Methylamino-5,7-dichloro-2-quinoline Carboxylate]
CLASS [1]: 31 | anticonvulsant activity (words) ([1]; mice, intraperitoneal): inactive | anticonvulsant activity (words) ([1]; mice, intraperitoneal, listed as 5,7-di-Cl-4-methylamino-2-butyl ester): inactive in anticonvulsant testing | anticonvulsant activity (words) ([1]; mice, intraperitoneal, listed as ester-4-methylamino-5,7-dichloro quinoline-2-carboxylate n-butyryl): lack of anticonvulsant activity | MES ([5]; 30 minutes, 30 mg/kg): 0/1 | MES ([5]; 30 minutes, 100 mg/kg): 0/3 | MES ([5]; 30 minutes, 300 mg/kg): 0/1 | MES ([5]; 4 hours, 30 mg/kg): 0/1 | MES ([5]; 4 hours, 100 mg/kg): 0/3 | MES ([5]; 4 hours, 300 mg/kg): 0/1 | Sc MET ([3]; 30 minutes, 30 mg/kg): 0/1 | Sc MET ([3]; 30 minutes, 100 mg/kg): 0/1 | Sc MET ([3]; 30 minutes, 300 mg/kg): 0/1 | Sc MET ([3]; 4 hours, 30 mg/kg): 0/1 | Sc MET ([3]; 4 hours, 100 mg/kg): 0/1 | Sc MET ([3]; 4 hours, 300 mg/kg): 0/1

CCOC(=O)c1cc(O)c2c(Cl)cc(Cl)cc2n1 [5,7 0-di-Cl-2-ethyl ester, 5,7-dichloro-kynurenate ethyl ester]
anticonvulsant activity (words) ([1]; mice, intraperitoneal): inactive

O=C(O)c1cc2cc(Cl)ccc2[nH]1 [5-Cl-indole-2-COOH, 5-chloro-indole-2-carboxylic acid]
minimal effective dose [3, 7]: 100 mg/kg | minimal effective dose [3, 8]: 100 mg/kg | Met activity ([3]; mice, intraperitoneal): Met protection | Effective Intraperitoneal Dose, Rotorod ([4]; mouse, in vivo, ip): 300 mg/kg | dose causing neurological deficit on rotorod ([4]; mouse, in vivo, ip): 300 mg/kg | [3H]glycine binding inhibition [2]: binding competition similar to that seen with the 5-fluoro derivative

Nc1cc(C(=O)O)nc2cc(Cl)cc(Cl)c12 [4-amino-5,7-dichloro-2-quinoline carboxylate acid]
CLASS [1]: 3 | anticonvulsant activity (words) ([1]; mice, intraperitoneal): lack of anticonvulsive activity | MES ([5]; 30 minutes, 30 mg/kg): 0/1 | MES ([5]; 30 minutes, 100 mg/kg): 0/3 | MES ([5]; 30 minutes, 300 mg/kg): 0/1 | MES ([5]; 4 hours, 30 mg/kg): 0/1 | MES ([5]; 4 hours, 100 mg/kg): 0/3 | MES ([5]; 4 hours, 300 mg/kg): 0/1 | Sc MET ([3]; 30 minutes, 30 mg/kg): 0/1 | Sc MET ([3]; 30 minutes, 100 mg/kg): 0/1 | Sc MET ([3]; 30 minutes, 300 mg/kg): 0/1 | Sc MET ([3]; 4 hours, 30 mg/kg): 0/1 | Sc MET ([3]; 4 hours, 100 mg/kg): 0/1 | Sc MET ([3]; 4 hours, 300 mg/kg): 0/1

CCOC(=O)c1cc2cc(OC)ccc2[nH]1 [5-methoxy-indole-2-ethyl ester, 5-methoxy-indole-2-ethyl carboxylate]
minimal effective dose ([5]; Table 7, value without parentheses = effective dose, read-out: Effective Intraperitoneal Dose, MES): 300 mg/kg | minimal effective dose ([5]; mice, intraperitoneal, read-out: dose active in MES test): 300 mg/kg | minimal effective dose [3, 7]: 100 mg/kg | minimal effective dose [3, 8]: 100 mg/kg | Effective Intraperitoneal Dose, Rotorod [4, 6]: 300 mg/kg | dose causing neurological deficit on rotorod ([4]; mice, intraperitoneal): 300 mg/kg | [3H]glycine binding inhibition [2]: did not compete for [^3 H]glycine binding; also recorded: did not inhibit [^3 H]glycine binding

Cc1cc2c(O)cc(C(=O)O)nc2cc1Cl [6-CH3-7-Cl-2-COOH]
anticonvulsant activity (words) ([1]; mice, intraperitoneal): no anticonvulsant activity | [3H]glycine binding inhibition [2]: glycine-binding inhibition
